Source: patent US20250387405A1 (priority 2021, published 2025)
Read-outs that look alike come from different tables or passages of the source.

Legend:
[1] = format: physicochemical; conditions: for Content of OXA/% / Content of CBT/%: 60° C.; for crystal structure: high temperature (60° C.) test
[2] = format: physicochemical; conditions: for Content of OXA/% / Content of CBT/%: light; for crystal structure: light stability test
[3] = test system: Human MH7A synovial cells; assay: Proliferation of MH7A cells; format: cell-based
Description: Human MH7A synovial cells were cultured in vitro and measured by quantifying the number of cells 48 h after treatment Proliferation.

[4] = test system: Human fibroblast-like synovial cell rheumatoid arthritis (HFLS-RA) cells; assay: Proliferation of HFLS-RA cells; format: cell-based
Description: Human fibroblast-like synovial cell rheumatoid arthritis (HFLS-RA) cells were cultured in vitro and their proliferation was measured by quantifying the number of cells 48 h after treatment.

[5] = Equilibrium solubility in water by HPLC; conditions: for equilibrium solubility in water (25° C.): HPLC
[6] = 48 h after treatment, 1.563-100 μg/mL

Row | SMILES | Content of OXA/% ([1]; Day 0) [%] | Content of OXA/% ([1]; Day 1) [%] | Content of OXA/% ([1]; Day 3) [%] | Content of OXA/% ([1]; Day 5) [%] | Content of OXA/% ([1]; Day 10) [%] | Content of OXA/% ([1]; Day 15) [%] | crystal structure [1] | Content of OXA/% ([2]; Day 0) [%] | Content of OXA/% ([2]; Day 1) [%] | Content of OXA/% ([2]; Day 3) [%] | Content of OXA/% ([2]; Day 5) [%] | Content of OXA/% ([2]; Day 10) [%] | Content of OXA/% ([2]; Day 15) [%] | crystal structure [2] | Content of CBT/% ([1]; Day 0) [%] | Content of CBT/% ([1]; Day 1) [%] | Content of CBT/% ([1]; Day 3) [%] | Content of CBT/% ([1]; Day 5) [%] | Content of CBT/% ([1]; Day 10) [%] | Content of CBT/% ([1]; Day 15) [%] | also measured
1 | CCN(CC)CCCC(C)Nc1ccnc2cc(Cl)ccc12.O=C1[O][Pt]2([NH]C3CCCCC3[NH]2)[O]C1=O (centres unmarked) [OXA-U72, oxaliplatin-chloroquine cocrystal] | 100 | 100 | 99.38 | 99.46 | 99.33 | 99.46 | unchanged | 100 | 100 | 99.21 | 99.64 | 99.33 | 99.64 |  |  |  |  |  |  |  | 
2 | O=C1[O][Pt]2([NH]C3CCCCC3[NH]2)[O]C1=O.OCC1OC(Oc2cc(O)cc(C=Cc3ccc(O)cc3)c2)C(O)C(O)C1O (centres unmarked) [OXA-PDT, oxaliplatin-polydatin cocrystal] | 100 | 100 | 100 | 99.73 | 99.63 | 99.87 | unchanged | 100 | 100 | 99.97 | 99.88 | 99.44 | 99.91 | unchanged |  |  |  |  |  |  | 
3 | O=C1[O][Pt]2([NH][C@@H]3CCCC[C@H]3[NH]2)[O]C1=O [OXA, oxaliplatin, reference compound] | 100 | 98.36 | 99.33 | 99.18 | 99.09 | 98.21 | unchanged | 100 | 98.87 | 99.32 | 96.89 | 99.45 | 98.01 | unchanged |  |  |  |  |  |  | IC50, proliferation of MH7A [3, 6]: 8.91 µg/mL; proliferation of MH7A cells inhibited ([3]; FIG. 7): 99%; IC50, proliferation of HFLS-RA [4, 6]: 4.56 µg/mL; proliferation of HFLS-RA cells inhibited ([4]; FIG. 6): 99%
4 | O=C(O)C1(C(=O)O)CCC1.O=C1[O][Pt]2([NH]C3CCCCC3[NH]2)[O]C1=O (centres unmarked) [OXA-CBDA, oxaliplatin-1,1-cyclobutane dicarboxylic acid cocrystal] | 100 | 100 | 99.98 | 99.12 | 99.45 | 99.57 |  | 100 | 100 | 100 | 99.56 | 99.97 | 99.30 |  |  |  |  |  |  |  | 
5 | N.N.O=C([O-])C1(C(=O)[O-])CCC1.[Pt+2] [CBT, carboplatin, reference compound] |  |  |  |  |  |  | unchanged |  |  |  |  |  |  | unchanged | 100 | 99.76 | 99.29 | 99.16 | 99.27 | 99.82 | equilibrium solubility in water (25° C.) [5]: 12.7 mg/mL; Content of CBT/% ([2]; Day 0): 100%; Content of CBT/% ([2]; Day 1): 99.37%; Content of CBT/% ([2]; Day 3): 99.84%; Content of CBT/% ([2]; Day 5): 99.31%; Content of CBT/% ([2]; Day 10): 98.29%; Content of CBT/% ([2]; Day 15): 98.82%
6 | OCC1OC(Oc2cc(O)cc(C=Cc3ccc(O)cc3)c2)C(O)C(O)C1O.[NH2][Pt]1([NH2])[O]C(=O)C2(CCC2)C(=O)[O]1 (centres unmarked) [CBT-PDT, carboplatin-polydatin cocrystal] |  |  |  |  |  |  | unchanged |  |  |  |  |  |  | unchanged | 100 | 100 | 99.27 | 99.08 | 99.69 | 99.83 | equilibrium solubility in aqueous solution compared with oxaliplatin or carboplatin, respectively ([5]; aqueous solution, versus parent platinum drug): higher; equilibrium solubility in water (25° C.) [5]: 16.2 mg/mL; Content of CBT/% ([2]; Day 0): 100%; Content of CBT/% ([2]; Day 1): 100%; Content of CBT/% ([2]; Day 3): 100%; Content of CBT/% ([2]; Day 5): 99.60%; Content of CBT/% ([2]; Day 10): 99.72%; Content of CBT/% ([2]; Day 15): 99.29%
7 | CCN(CC)CCCC(C)Nc1ccnc2cc(Cl)ccc12.[NH2][Pt]1([NH2])[O]C(=O)C2(CCC2)C(=O)[O]1 (centres unmarked) [CBT-U72, carboplatin-chloroquine cocrystal] |  |  |  |  |  |  | unchanged |  |  |  |  |  |  |  | 100 | 100 | 99.66 | 99.84 | 99.67 | 99.97 | Content of CBT/% ([2]; Day 0): 100%; Content of CBT/% ([2]; Day 1): 100%; Content of CBT/% ([2]; Day 3): 99.20%; Content of CBT/% ([2]; Day 5): 99.24%; Content of CBT/% ([2]; Day 10): 99.57%; Content of CBT/% ([2]; Day 15): 99.92%
